“And” between values parts separate entries of the source, which are not always exact repeats. Equal values may be shown once. Read-outs that look alike come from different tables or passages of the source. Blank lines part the entries; values can stand above or below the compound they belong to.
Legend:
[1] = cited from earlier work
[2] = system: DRG neurons; assay: Calcium imaging of cultured dissociated DRG neurons; format: cell-based, mouse; details: for DRG neurons responding: Mrgpr-clusterΔ-/- mice; for effect on CQ-induced [Ca2+]i increase: WT DRG neurons
Method: Dorsal root ganglia from all spinal levels of 4-week old mice or rats were collected in cold DH10 (90% DMEM/F-12, 10% FBS, 100 U/ml penicillin, and 100 μg/ml Streptomycin, Gibco) and treated with enzyme solution (5 mg/ml Dispase, 1 mg/ml Collagenase Type I in HPBS without Ca^++ and Mg^++, Gibco) at 37° C. Following trituration and centrifugation, cells were resuspended in DH10, plated on glass cover slips coated with poly-D-lysine (0.5 mg/ml, Stoughton, Mass.) and laminin (10 μg/ml, Invitrogen), cultured in an incubator (95% O2 and 5% CO2) at 37° C. and used within 24 hours.

[3] = cited from earlier work; remark: listed apart in the source
[4] = biological target: T1, MrgprC11 (Mus musculus, UniProt Q8CIP3); assay: Calcium imaging of HEK293 cells transfected with Mrgpr-GFP constructs; format: cell-based; details: BAM8-22 2 μM
T1 construct: expressed in transfected cells; host or cells: HEK293
T1 sequence (Q8CIP3 1-322): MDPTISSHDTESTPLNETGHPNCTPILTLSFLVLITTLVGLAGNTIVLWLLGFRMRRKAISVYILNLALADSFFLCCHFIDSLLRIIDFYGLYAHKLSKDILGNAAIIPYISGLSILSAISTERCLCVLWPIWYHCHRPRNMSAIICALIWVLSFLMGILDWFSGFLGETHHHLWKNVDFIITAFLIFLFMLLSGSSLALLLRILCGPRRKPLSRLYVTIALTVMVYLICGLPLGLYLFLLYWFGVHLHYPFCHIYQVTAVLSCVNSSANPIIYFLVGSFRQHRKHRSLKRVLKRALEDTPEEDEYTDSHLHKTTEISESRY
Text: (§1) Each of the twelve Mrgprs that were deleted in Mrgpr-clusterΔ^−/− mice were cloned into a mammalian expression vector (FIG. 1A), and transfected individually into human embryonic kidney (HEK) 293 cells. By fusing green fluorescent protein (GFP) to the C-termini of the Mrgpr coding sequences, both transfected cells and the proper membrane localization of the receptors was visualized. […] Increased [Ca^2+]i resulting from activation of the receptors was monitored by calcium imaging.
(§2) HEK293 cells were transfected with Mrgpr-expression constructs using Lipofectamine 2000 (Invitrogen) according to the manufacturer's protocol.

[5] = biological target: T2, MrgprA4 (Mus musculus, UniProt Q91WW2); assay: as above; format: cell-based; details: NPFF 2 μM
T2 construct: expressed in transfected cells; host or cells: HEK293
T2 sequence (Q91WW2 1-313): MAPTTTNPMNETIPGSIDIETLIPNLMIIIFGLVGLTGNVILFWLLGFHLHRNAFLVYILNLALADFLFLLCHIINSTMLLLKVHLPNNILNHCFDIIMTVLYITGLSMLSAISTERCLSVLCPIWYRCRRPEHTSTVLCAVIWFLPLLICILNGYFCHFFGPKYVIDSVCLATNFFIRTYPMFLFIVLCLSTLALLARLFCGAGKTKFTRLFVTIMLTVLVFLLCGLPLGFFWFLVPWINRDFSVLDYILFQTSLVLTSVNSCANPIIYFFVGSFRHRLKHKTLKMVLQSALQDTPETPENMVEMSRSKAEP
Text: as §1, §2

[6] = biological target: T3, rat MrgprC (Rattus norvegicus, UniProt Q8R4G1); assay: Rescue: Mrgpr-clusterΔ-/- DRG neurons electroporated with rat Mrgpr, calcium imaging
T3 sequence (Q8R4G1 1-323): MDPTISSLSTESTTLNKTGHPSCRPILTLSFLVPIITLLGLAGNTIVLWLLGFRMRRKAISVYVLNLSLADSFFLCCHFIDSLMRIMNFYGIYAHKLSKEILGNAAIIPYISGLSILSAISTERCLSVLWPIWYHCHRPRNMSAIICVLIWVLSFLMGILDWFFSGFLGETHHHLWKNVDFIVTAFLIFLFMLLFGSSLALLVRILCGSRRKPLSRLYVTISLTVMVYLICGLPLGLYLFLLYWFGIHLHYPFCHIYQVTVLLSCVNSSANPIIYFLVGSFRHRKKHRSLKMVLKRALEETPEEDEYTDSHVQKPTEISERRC

[7] = system: rats; assay: Scratching behavior after intradermal injection in rats; details: 500 μg/50 μl, first 30 min
[8] = biological target: T4, MrgprA1 (Mus musculus, UniProt Q91WW5); assay: Rescue: Mrgpr-clusterΔ-/- DRG neurons electroporated with Mrgpr construct; format: cell-based; design: expressed in transfected cells; host or cells: dissociated adult DRG neurons of Mrgpr-cluster-deleted mice
T4 sequence (Q91WW5 1-304): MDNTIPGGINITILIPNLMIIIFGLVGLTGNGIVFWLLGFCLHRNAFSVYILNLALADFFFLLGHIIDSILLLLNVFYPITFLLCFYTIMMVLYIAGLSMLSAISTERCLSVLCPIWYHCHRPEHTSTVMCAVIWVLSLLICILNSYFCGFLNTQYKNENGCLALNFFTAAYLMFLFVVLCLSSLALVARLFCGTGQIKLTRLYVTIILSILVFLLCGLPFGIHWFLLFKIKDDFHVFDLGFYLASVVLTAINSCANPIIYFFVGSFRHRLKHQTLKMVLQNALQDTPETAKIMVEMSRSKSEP
Method: (§6) To determine whether MrgprA3 or MrgprX1 can rescue the phenotypes of DRG neurons from Mrgpr-clusterΔ^−/− mice, the Mrgpr expression constructs used in the heterologous studies were electroporated into dissociated adult DRG neurons from these mice. After 24 hour in culture, expression and membrane localization of the transfected Mrgprs in the mutant neurons could be readily visualized by GFP (FIG. 8G).

[9] = biological target: T5, MrgprX1 (Homo sapiens, UniProt Q96LB2); assay: Calcium imaging of HEK293 cells transfected with Mrgpr-GFP constructs; format: cell-based; details: for activation of MrgprX1 (increased [Ca2+]i): BAM8-22 2 μM
Method: (§3) The human Mrgpr family (i.e. MrgprXs) is much smaller than the murine family.
(§4) Serotonin also has a bicyclic structure. […] Quinine is another drug used to treat malaria and its side effects also include itch. However, it is unclear if quinine-induced itch is an allergic response.
(§5) HEK293 cells were cultured in growth medium consisted of 90% DMEM, 10% fetal bovine serum, 100 U/ml penicillin, and 100 μg/ml Streptomycin (Invitrogen) at 37° C. in the presence of […] and 5% CO2. HEK293 cells were transfected with Mrgpr-expression constructs using Lipofectamine 2000 (Invitrogen) according to the manufacturer's protocol.

[10] = system: DRG neurons; assay: Whole-cell current-clamp recording of action potentials in DRG neurons; format: cell-based, mouse; details: CQ 1 mM
Text: To determine whether CQ can directly induce action potentials (APs) in dissociated DRG neurons, using whole-cell patch clamp recording. […] These studies provide strong evidence that CQ can directly excite a small subpopulation of sensory neurons in DRG and that Mrgprs are required for this effect. Similar to the mouse results, CQ induces robust activation in a subset of rat DRG neurons as determined by both an increase in [Ca^2+]i and generation of APs (FIG. 4).
Patch pipettes had resistances of 2-4 MΩ. […] All experiments were performed at room temperature ([…]).

[11] = biological target: T6, MrgprX2 (Homo sapiens, UniProt Q96LB1); assay: Calcium imaging of transfected HEK293 cells; format: cell-based
T6 construct: expressed in transfected cells; host or cells: HEK293
T6 sequence (Q96LB1 1-330): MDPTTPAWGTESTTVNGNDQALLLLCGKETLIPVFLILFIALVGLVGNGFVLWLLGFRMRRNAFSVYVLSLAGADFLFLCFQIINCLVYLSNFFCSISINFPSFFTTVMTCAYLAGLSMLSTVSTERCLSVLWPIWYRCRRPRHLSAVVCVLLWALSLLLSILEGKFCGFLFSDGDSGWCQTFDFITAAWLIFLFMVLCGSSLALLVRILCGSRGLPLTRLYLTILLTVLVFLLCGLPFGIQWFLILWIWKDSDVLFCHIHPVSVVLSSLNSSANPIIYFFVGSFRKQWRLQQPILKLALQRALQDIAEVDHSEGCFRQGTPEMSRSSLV
Text: as §3

[12] = biological target: T7, MrgprX3 (Homo sapiens, UniProt Q96LB0); assay: Calcium imaging of transfected HEK293 cells; format: cell-based
T7 construct: expressed in transfected cells; host or cells: HEK293
Text: as §3

[13] = biological target: T4, MrgprA1; assay: Calcium imaging of HEK293 cells transfected with Mrgpr-GFP constructs; format: cell-based; design: expressed in transfected cells; details: CQ 1 mM, FMRF 2 μM
Text: as §1, §2

[14] = biological target: T8, MrgprA3 (Mus musculus, UniProt Q91WW3); assay: as above; format: cell-based; design: expressed in transfected cells; host or cells: HEK293
T8 sequence (Q91WW3 1-302): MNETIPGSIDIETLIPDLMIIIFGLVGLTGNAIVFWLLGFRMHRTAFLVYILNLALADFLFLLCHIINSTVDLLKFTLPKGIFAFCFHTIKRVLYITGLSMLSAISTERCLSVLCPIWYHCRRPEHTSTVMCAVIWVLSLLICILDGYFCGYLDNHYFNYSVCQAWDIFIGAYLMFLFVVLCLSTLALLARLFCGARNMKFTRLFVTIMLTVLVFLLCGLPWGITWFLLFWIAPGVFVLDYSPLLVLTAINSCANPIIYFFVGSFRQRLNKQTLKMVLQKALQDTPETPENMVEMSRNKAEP
Text: as §1, §4, §5

[15] = system: mice; assay: Scratching behavior after pruritogen injection in mice; format: in vivo, mouse; details: for total number of scratching bouts: first 30 min after CQ injection (200 μg/50 μl, 8 mM); for scratching in Mrgpr-clusterΔ-/- mice compared with WT: 30 min, histamine 10 μmol, compound 48/80 100 μg/50 μl, CQ 200 μg/50 μl, BAM8-22 50 μl of 1 mM
Text: Kuraishi et al., (1995). […] F. (2007) Nature 448, 700-703).

[16] = biological target: T8, MrgprA3; assay: Rescue: Mrgpr-clusterΔ-/- DRG neurons electroporated with Mrgpr construct; format: cell-based
Method: as §6

[17] = biological target: T5, MrgprX1; assay: as above; format: cell-based, mouse
Method: as §6

[18] = biological target: histamine H1 receptor (Homo sapiens, UniProt P35367); details: HEK293 cells; histamine 50 μM
Text: as §1, §5

T5 sequence (Q96LB2 whole entry): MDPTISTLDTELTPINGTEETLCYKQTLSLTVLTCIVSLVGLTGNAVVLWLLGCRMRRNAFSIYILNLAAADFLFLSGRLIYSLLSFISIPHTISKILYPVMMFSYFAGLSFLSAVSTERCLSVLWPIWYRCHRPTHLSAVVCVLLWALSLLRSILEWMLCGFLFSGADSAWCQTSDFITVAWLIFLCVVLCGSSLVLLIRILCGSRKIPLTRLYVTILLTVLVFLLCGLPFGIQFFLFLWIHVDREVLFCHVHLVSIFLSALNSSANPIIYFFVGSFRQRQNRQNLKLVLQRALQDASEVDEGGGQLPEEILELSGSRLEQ
Sequence of histamine H1 receptor (P35367 whole entry, species assumed): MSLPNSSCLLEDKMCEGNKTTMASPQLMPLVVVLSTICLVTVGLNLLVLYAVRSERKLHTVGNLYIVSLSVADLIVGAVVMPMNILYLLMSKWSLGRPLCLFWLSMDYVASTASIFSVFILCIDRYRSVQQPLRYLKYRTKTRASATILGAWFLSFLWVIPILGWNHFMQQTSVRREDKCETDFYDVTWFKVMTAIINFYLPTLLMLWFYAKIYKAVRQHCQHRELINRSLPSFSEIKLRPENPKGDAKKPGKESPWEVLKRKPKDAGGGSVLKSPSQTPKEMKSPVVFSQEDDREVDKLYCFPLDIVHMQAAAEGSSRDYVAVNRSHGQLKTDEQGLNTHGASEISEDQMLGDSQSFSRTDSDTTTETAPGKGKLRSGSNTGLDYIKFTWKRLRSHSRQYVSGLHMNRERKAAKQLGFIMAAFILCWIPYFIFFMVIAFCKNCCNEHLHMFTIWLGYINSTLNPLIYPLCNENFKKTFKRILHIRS
T7 sequence (Q96LB0 whole entry): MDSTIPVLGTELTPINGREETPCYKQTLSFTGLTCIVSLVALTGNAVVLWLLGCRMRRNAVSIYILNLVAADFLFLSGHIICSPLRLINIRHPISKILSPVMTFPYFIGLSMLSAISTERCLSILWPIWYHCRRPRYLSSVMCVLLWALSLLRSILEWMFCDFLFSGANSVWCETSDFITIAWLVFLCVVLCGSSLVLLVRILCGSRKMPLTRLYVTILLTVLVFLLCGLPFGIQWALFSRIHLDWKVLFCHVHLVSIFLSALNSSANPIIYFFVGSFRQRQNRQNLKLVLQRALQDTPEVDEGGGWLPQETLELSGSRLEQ

response of MrgprC11-expressing cells [4]: failed to respond
response of MrgprA4-expressing cells [5]: insensitive
response of rat MrgprC-electroporated Mrgpr-deficient neurons [6]: did not
MrgprA1-electroporated neurons eliciting a few APs [8]: 3 out of 7
[Ca2+]i response of MrgprA1-electroporated mutant neurons [8]: only a small portion responded
activation of MrgprX1 (increased [Ca2+]i) [9]: responded
EC50 ([9]; dose-response, calcium imaging): 297.7 ± 2.1 µM
response of MrgprX2-expressing cells [11]: completely insensitive
response of MrgprX3-expressing cells [12]: completely insensitive
activation of MrgprA3 (increased [Ca2+]i) [14]: strong response
EC50 ([14]; dose-response, calcium imaging): 27.6 ± 2.03 µM
[Ca2+]i response of MrgprA3-expressing mutant neurons [16]: showed increased [Ca^2+]i
action potentials in MrgprA3-expressing mutant neurons [16]: generated numerous APs
MrgprX1-electroporated GFP-positive neurons generating a train of APs [17]: 5 out of 7
[Ca2+]i response of MrgprX1-electroporated mutant neurons [17]: sensitivity
Compound: CCN(CC)CCCC(C)Nc1ccnc2cc(Cl)ccc12 (stereo not shown) [CQ, Chloroquine]
concentration in patient plasma ([1]; plasma): micromolar range
concentration reached in skin and other pigmented tissues ([1]; skin): high micromolar to millimolar concentrations
DRG neurons responding [2]: none of the neurons
percentage of DRG neurons responding with increased [Ca2+]i ([2]; WT mice, CQ 1 mM, BAM8-22 2 μM): ~4.4% and 4-5%
reduction of calcium responses on sequential application ([2]; WT neurons): ~20%
patients refusing further treatment because of unbearable itch ([3]; African patients): ~30%
incidence of itch as side effect ([3]; black Africans): up to 70%
scratching responses [7]: evoked profound scratching responses
neurons showing any response ([10]; Mrgpr-clusterΔ-/- mice): none of 11
action potentials in CQ-sensitive neurons ([10]; WT DRG): displayed a train of APs
response of MrgprA1-transfected cells (increased [Ca2+]i) [13]: fewer than half of MrgprA1-tranfected cells responded
occurrence of the first scratching behavior ([15]; Mrgpr-clusterΔ-/- (KO) mice): 280.5 ± 35.0 s
total number of scratching bouts ([15]; Mrgpr-clusterΔ-/- mice): 104±13
occurrence of the first scratching behavior ([15]; WT mice): 57.8 ± 25.4 s
time at which scratching peaked ([15]; WT mice): ≤ 15 min
first bout observed after injection ([15]; WT mice, typical): 1 to 2 min
total number of scratching bouts ([15]; WT mice): 278±21

Compound: O=C(O)CN(CCOCCOCCN(CC(=O)O)CC(=O)O)CC(=O)O [EGTA]
effect on CQ-induced [Ca2+]i increase [2]: almost completely blocked

Compound: N.N.N.N.N.N.N.N.N.N.N.N.N.N.[Cl-].[Cl-].[Cl-].[Cl-].[Cl-].[Cl-].[O-2].[O-2].[Ru+3].[Ru+3].[Ru+4] [Ruthenium red]
effect on CQ-induced [Ca2+]i increase [2]: severely attenuated

activation of MrgprA3 ([14]; 100 μM): failed to activate
Compound: NCCc1c[nH]c2ccc(O)cc12 [Serotonin]

Compound: NCCc1c[nH]cn1 [histamine]
percentage of DRG neurons responding, WT versus mutant cultures ([2]; histamine 50 μM): identical
activation of MrgprA3 (increased [Ca2+]i) [14]: did not respond
response of histamine H1 receptor-expressing cells [18]: strong response
scratching in Mrgpr-clusterΔ-/- mice compared with WT [15]: No significant difference

activation of MrgprA3 (increased [Ca2+]i) [14]: weakly activates
Compound: C=C[C@H]1C[N@@]2CC[C@H]1C[C@H]2[C@H](O)c1ccnc2ccc(OC)cc12 [quinine]

activation of MrgprX1 (increased [Ca2+]i) [9]: completely failed to activate
activation of MrgprA3 (increased [Ca2+]i) [14]: completely failed to activate
Compound: c1ccc2ncccc2c1 [quinoline]
scratching responses [7]: did not
scratching behavior evoked ([15]; both WT and mutant mice): did not evoke any scratching behavior

Compound: BAM8-22: bovine adrenal medulla peptide; MrgprC11-specific agonist (VGRPEWWMDYQKRYG)
DRG neurons responding [2]: no DRG neurons
response of MrgprC11-expressing cells [4]: responded
response of rat MrgprC-electroporated Mrgpr-deficient neurons ([6]; BAMS-22 10 μM): responded
activation of MrgprX1 (increased [Ca2+]i) [9]: responded
activation of MrgprA3 (increased [Ca2+]i) [14]: did not respond
scratching in Mrgpr-clusterΔ-/- mice compared with WT [15]: dramatic reduction
scratching behavior evoked ([15]; WT mice, intradermal injection, 50 μl of 1 mM): induced strong scratching behavior
[Ca2+]i response of MrgprX1-electroporated mutant neurons [17]: sensitivity

Compound: FMRF: molluscan FMRFamide, peptide agonist of MrgprA1
[Ca2+]i response of MrgprA1-electroporated mutant neurons ([8]; FMRF 2 μM): strong response
response of MrgprA1-transfected cells (increased [Ca2+]i) [13]: all transfected cells responded

Compound: NPFF: mammalian neuropeptide FF, peptide agonist of MrgprA4
response of MrgprA4-expressing cells [5]: respond
